Source: ChEMBL document CHEMBL1137253, “Novel C-3 N-urea, amide, and carbamate dihydroindazolo[5,4-a]pyrrolo[3,4-c]carbazole analogs as potent TIE-2 and VEGF-R2 dual inhibitors” (Bioorg Med Chem Lett, 2006)

test system: not listed separately; assay: Clearance in rat at 1 mg/kg, iv; format: ADME, organism-based; design: dose 1 mg/kg, route intravenous; settings: in vivo

clearance	SMILES
10.5 mL/min/kg	CCCn1c2ccc(NC(=O)OC(C)C)cc2c2c3c(c4c(c21)CCc1nn(C)cc1-4)C(=O)NC3

test system: not listed separately; assay: AUC (0-infinity) in rat at 5 mg/kg, po; format: ADME, organism-based; design: time infinity, dose 5 mg/kg, route oral; settings: plasma

AUC(0-inf)	SMILES
3770 ng·h/mL	CCCn1c2ccc(NC(=O)OC(C)C)cc2c2c3c(c4c(c21)CCc1nn(C)cc1-4)C(=O)NC3

test system: not listed separately; assay: AUC (0-t) in rat at 5 mg/kg, po; format: ADME, organism-based; design: dose 5 mg/kg, route oral; settings: plasma

AUC(0-t)	SMILES
2420 ng·h/mL	CCCn1c2ccc(NC(=O)OC(C)C)cc2c2c3c(c4c(c21)CCc1nn(C)cc1-4)C(=O)NC3

test system: not listed separately; assay: AUC (0-infinity) in rat at 1 mg/kg, iv; format: ADME, organism-based; design: time infinity, dose 1 mg/kg, route intravenous; settings: plasma

AUC(0-inf)	SMILES
1710 ng·h/mL	CCCn1c2ccc(NC(=O)OC(C)C)cc2c2c3c(c4c(c21)CCc1nn(C)cc1-4)C(=O)NC3

test system: Rattus norvegicus; assay: Toxicity assessed by gastrointestinal hemorrhage in rat at 10 mg/kg; format: organism-based; design: dose 10 mg/kg; settings: in vivo

SMILES	Activity
CCCn1c2ccc(NC(=O)OC(C)C)cc2c2c3c(c4c(c21)CCc1nn(C)cc1-4)C(=O)NC3	Toxic

test system: not listed separately; assay: Cmax in rat at 5 mg/kg, po; format: ADME, organism-based; design: dose 5 mg/kg, route oral; settings: in vivo

Cmax	SMILES
552 ng/mL	CCCn1c2ccc(NC(=O)OC(C)C)cc2c2c3c(c4c(c21)CCc1nn(C)cc1-4)C(=O)NC3

test system: not listed separately; assay: AUC (0-t) in rat at 1 mg/kg, iv; format: ADME, organism-based; design: dose 1 mg/kg, route intravenous; settings: plasma

AUC(0-t)	SMILES
1420 ng·h/mL	CCCn1c2ccc(NC(=O)OC(C)C)cc2c2c3c(c4c(c21)CCc1nn(C)cc1-4)C(=O)NC3

test system: not listed separately; assay: Half life in rat at 1 mg/kg, iv; format: ADME, organism-based; design: dose 1 mg/kg, route intravenous; settings: in vivo

half-life	SMILES
2.84 h	CCCn1c2ccc(NC(=O)OC(C)C)cc2c2c3c(c4c(c21)CCc1nn(C)cc1-4)C(=O)NC3

test system: not listed separately; assay: Tmax in rat at 5 mg/kg, po; format: ADME, organism-based; design: dose 5 mg/kg, route oral; settings: in vivo

Tmax	SMILES
4 h	CCCn1c2ccc(NC(=O)OC(C)C)cc2c2c3c(c4c(c21)CCc1nn(C)cc1-4)C(=O)NC3

species: Mus musculus; assay: Antitumor activity against murine SVR cells in nude mice; format: functional; settings: not given

SMILES	Activity
CCCn1c2ccc(NC(=O)OC(C)C)cc2c2c3c(c4c(c21)CCc1nn(C)cc1-4)C(=O)NC3	62%

molecular target: Angiopoietin-1 receptor (Homo sapiens, UniProt Q02763); settings: not given
Sequence (Q02763 whole entry): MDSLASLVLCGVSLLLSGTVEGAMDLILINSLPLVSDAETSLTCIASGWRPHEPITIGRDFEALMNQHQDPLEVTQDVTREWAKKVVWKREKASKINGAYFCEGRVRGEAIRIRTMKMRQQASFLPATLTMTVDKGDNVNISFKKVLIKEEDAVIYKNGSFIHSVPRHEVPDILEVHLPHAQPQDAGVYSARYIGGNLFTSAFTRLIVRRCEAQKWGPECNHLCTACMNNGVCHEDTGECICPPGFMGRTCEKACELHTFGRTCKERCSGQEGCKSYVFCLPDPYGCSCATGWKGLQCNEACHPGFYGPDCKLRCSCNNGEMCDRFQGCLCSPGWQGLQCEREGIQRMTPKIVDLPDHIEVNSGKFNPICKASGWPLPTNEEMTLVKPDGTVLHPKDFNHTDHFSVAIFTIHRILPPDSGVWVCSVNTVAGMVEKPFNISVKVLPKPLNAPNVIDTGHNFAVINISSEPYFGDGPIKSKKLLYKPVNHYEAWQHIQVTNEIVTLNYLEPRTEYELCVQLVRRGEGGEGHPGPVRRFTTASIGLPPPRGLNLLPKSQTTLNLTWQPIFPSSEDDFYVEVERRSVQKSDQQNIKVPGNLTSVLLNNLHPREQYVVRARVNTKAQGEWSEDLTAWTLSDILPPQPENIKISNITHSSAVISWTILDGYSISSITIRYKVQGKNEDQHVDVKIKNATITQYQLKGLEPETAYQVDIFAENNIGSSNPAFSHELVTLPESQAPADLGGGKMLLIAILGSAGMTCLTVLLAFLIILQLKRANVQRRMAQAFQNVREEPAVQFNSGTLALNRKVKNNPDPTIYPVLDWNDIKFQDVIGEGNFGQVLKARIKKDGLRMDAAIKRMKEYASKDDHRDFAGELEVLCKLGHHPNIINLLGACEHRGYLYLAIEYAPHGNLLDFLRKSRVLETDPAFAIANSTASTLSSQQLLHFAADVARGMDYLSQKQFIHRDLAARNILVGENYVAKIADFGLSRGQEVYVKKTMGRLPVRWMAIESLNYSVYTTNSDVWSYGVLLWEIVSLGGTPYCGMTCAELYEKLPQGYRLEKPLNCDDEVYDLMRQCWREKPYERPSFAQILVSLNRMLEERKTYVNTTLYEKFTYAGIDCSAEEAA

IC50	SMILES
6 nM	CCCn1c2ccc(NC(=O)Nc3ccc(N(C)C)cc3)cc2c2c3c(c4c(c21)CCc1nn(C)cc1-4)C(=O)NC3
5 nM	CCCn1c2ccc(NC(=O)Nc3ccccc3)cc2c2c3c(c4c(c21)CCc1nn(C)cc1-4)C(=O)NC3
4 nM	CCn1c2ccc(NC(=O)Nc3ccc(OC)cc3)cc2c2c3c(c4c(c21)CCc1nn(C)cc1-4)C(=O)NC3
12 nM	CCCn1c2ccc(NC(=O)c3cccs3)cc2c2c3c(c4c(c21)CCc1nn(C)cc1-4)C(=O)NC3
4 nM	COc1cccc(NC(=O)Nc2ccc3c(c2)c2c4c(c5c(c2n3CC(C)C)CCc2nn(C)cc2-5)C(=O)NC4)c1
2 nM	CCCn1c2ccc(NC(=O)Nc3ccc(OC)cc3)cc2c2c3c(c4c(c21)CCc1nn(C)cc1-4)C(=O)NC3
7 nM	CCCOC(=O)Nc1ccc2c(c1)c1c3c(c4c(c1n2CCC)CCc1nn(C)cc1-4)C(=O)NC3
3 nM	CCCn1c2ccc(NC(=O)Nc3ccc(C)cc3)cc2c2c3c(c4c(c21)CC(C=N)=CC4)C(=O)NC3
4 nM	CCCn1c2ccc(NC(=O)Nc3ccccc3Br)cc2c2c3c(c4c(c21)CCc1nn(C)cc1-4)C(=O)NC3
48 nM	CC(C)Cn1c2ccc(N)cc2c2c3c(c4c(c21)CCc1nn(C)cc1-4)C(=O)NC3
29 nM	CCCn1c2ccc(NC(=O)c3ccco3)cc2c2c3c(c4c(c21)CCc1nn(C)cc1-4)C(=O)NC3
7 nM	CCCCn1c2ccc(NC(=O)Nc3ccc(OC)cc3)cc2c2c3c(c4c(c21)CCc1nn(C)cc1-4)C(=O)NC3
2 nM	CCCn1c2ccc(NC(=O)Nc3ccccc3F)cc2c2c3c(c4c(c21)CCc1nn(C)cc1-4)C(=O)NC3
3 nM	COc1ccc(NC(=O)Nc2ccc3c(c2)c2c4c(c5c(c2n3CC(C)C)CCc2nn(C)cc2-5)C(=O)NC4)cc1
18 nM	CCCn1c2ccc(NC(=O)OCC)cc2c2c3c(c4c(c21)CCc1nn(C)cc1-4)C(=O)NC3
2 nM	CCCn1c2ccc(NC(=O)Nc3cccc(F)c3)cc2c2c3c(c4c(c21)CCc1nn(C)cc1-4)C(=O)NC3

IC50	SMILES
6 nM	CCCn1c2ccc(NC(=O)Nc3ccc(Cl)cc3)cc2c2c3c(c4c(c21)CCc1nn(C)cc1-4)C(=O)NC3
20 nM	CC(C)Cn1c2ccc(NC(=O)c3ccco3)cc2c2c3c(c4c(c21)CCc1nn(C)cc1-4)C(=O)NC3
1 nM	CCCn1c2ccc(NC(=O)Nc3cc(C)ccc3F)cc2c2c3c(c4c(c21)CCc1nn(C)cc1-4)C(=O)NC3
3 nM	CCCn1c2ccc(NC(=O)Nc3ccc(SC)cc3)cc2c2c3c(c4c(c21)CCc1nn(C)cc1-4)C(=O)NC3
5 nM	CCCn1c2ccc(NC(=O)Oc3ccc(OC)cc3)cc2c2c3c(c4c(c21)CCc1nn(C)cc1-4)C(=O)NC3
230 nM	CCCCn1c2ccc(N)cc2c2c3c(c4c(c21)CCc1nn(C)cc1-4)C(=O)NC3
36 nM	CCCn1c2ccc(N)cc2c2c3c(c4c(c21)CCc1nn(C)cc1-4)C(=O)NC3
3 nM	CCCn1c2ccc(NC(=O)Nc3ccccc3Cl)cc2c2c3c(c4c(c21)CCc1nn(C)cc1-4)C(=O)NC3
11 nM	CCCn1c2ccc(NC(=O)Oc3ccc(F)cc3)cc2c2c3c(c4c(c21)CCc1nn(C)cc1-4)C(=O)NC3
11 nM	CCCn1c2ccc(NC(=O)OC(C)C)cc2c2c3c(c4c(c21)CCc1nn(C)cc1-4)C(=O)NC3
2 nM	CCCn1c2ccc(NC(=O)Nc3ccc(F)cc3)cc2c2c3c(c4c(c21)CCc1nn(C)cc1-4)C(=O)NC3
19 nM	CCCn1c2ccc(NC(=O)Nc3cccs3)cc2c2c3c(c4c(c21)CCc1nn(C)cc1-4)C(=O)NC3
2 nM	CCCn1c2ccc(NC(=O)N(C)c3ccccc3)cc2c2c3c(c4c(c21)CCc1nn(C)cc1-4)C(=O)NC3
4 nM	CCCn1c2ccc(NC(=O)Nc3cc(C(F)(F)F)ccc3F)cc2c2c3c(c4c(c21)CCc1nn(C)cc1-4)C(=O)NC3
10 nM	CC(C)Cn1c2ccc(NC(=O)c3cccs3)cc2c2c3c(c4c(c21)CCc1nn(C)cc1-4)C(=O)NC3
8 nM	COc1ccccc1NC(=O)Nc1ccc2c(c1)c1c3c(c4c(c1n2CC(C)C)CCc1nn(C)cc1-4)C(=O)NC3

test system: not listed separately; assay: Volume of distribution in rat at 1 mg/kg, iv; format: ADME, organism-based; design: dose 1 mg/kg, route intravenous; settings: in vivo, read-out: Vdss

Vd	SMILES
2.34 L/kg	CCCn1c2ccc(NC(=O)OC(C)C)cc2c2c3c(c4c(c21)CCc1nn(C)cc1-4)C(=O)NC3
